Measured values: ChEMBL document CHEMBL3112529, “Synthesis of a C-phosphonate mimic of maltose-1-phosphate and inhibition studies on Mycobacterium tuberculosis GlgE” (Bioorg Med Chem, 2014)

Target: T1, Alpha-1,4-glucan:maltose-1-phosphate maltosyltransferase (Mycobacterium tuberculosis (strain ATCC 25618 / H37Rv), UniProt P9WQ17)
T1 sequence (P9WQ17 whole entry): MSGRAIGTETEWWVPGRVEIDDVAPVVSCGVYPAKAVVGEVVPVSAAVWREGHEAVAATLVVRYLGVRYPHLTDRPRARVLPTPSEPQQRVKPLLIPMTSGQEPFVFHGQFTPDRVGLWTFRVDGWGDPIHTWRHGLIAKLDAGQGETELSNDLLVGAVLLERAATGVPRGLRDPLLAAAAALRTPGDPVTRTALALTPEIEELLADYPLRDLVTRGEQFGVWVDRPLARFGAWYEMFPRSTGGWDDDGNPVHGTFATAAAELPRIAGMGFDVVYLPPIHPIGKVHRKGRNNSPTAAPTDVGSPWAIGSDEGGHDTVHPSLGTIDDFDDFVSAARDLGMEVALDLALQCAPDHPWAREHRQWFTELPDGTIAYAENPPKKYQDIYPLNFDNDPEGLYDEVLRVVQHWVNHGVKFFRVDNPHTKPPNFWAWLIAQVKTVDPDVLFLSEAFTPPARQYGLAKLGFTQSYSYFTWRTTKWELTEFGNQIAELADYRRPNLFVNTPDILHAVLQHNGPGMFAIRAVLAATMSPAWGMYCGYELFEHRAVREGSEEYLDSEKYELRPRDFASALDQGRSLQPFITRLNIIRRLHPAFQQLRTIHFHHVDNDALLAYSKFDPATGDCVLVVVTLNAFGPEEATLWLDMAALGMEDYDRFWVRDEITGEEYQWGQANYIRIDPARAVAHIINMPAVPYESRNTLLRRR
Experiment: Inhibition of recombinant Mycobacterium tuberculosis H37Rv GlgE expressed in Escherichia coli BL21 (DE3) rosetta cells using maltose-1-phosphate as substrate measured every 5 secs for 30 mins by purine nucleoside phosphorylase-coupled assay

Structure (SMILES): O=P(O)(O)C[C@H]1O[C@H](CO)[C@@H](O[C@H]2O[C@H](CO)[C@@H](O)[C@H](O)[C@H]2O)[C@H](O)[C@H]1O
- IC50: 230 µM
